Entries after “also recorded” stand apart in the source; their conditions may differ. Read-outs that look alike come from different tables or passages of the source. Marks after values point to notes of the source that are not given here.
Assays:
[1] = system: TNF-a; assay: Inflammatory chemokine and cytokine analysis in CIA mice, TNF-a; type: in vivo, mouse
Method: (§1) Inflammatory Chemokine and Cytokine Analysis: At the termination of the CIA study, mice were sacrificed and blood was harvested via cardiac punch using EDTA as an anticoagulant. Following centrifugation, serum was diluted 1:4 with a mouse serum diluents kit (BioRad cat#171-305004). Levels of various mouse cytokines in plasma were quantified using Bioplex® Suspension Array System according to manufacturer's instruction (BioRad, mTNFa (171-G5023M), mIL-6 (171-G5007M), mKC (171-G5018M), mIFNg (171-G5017M), mIL-17 (Z60-00006Z2), mIL-1β (171-G5002M), mMCP-1 (171-G5019M).

[2] = system: male NOD mice; assay: NOD mouse model, lachrymal gland secretion (cotton thread test); type: in vivo; settings: besylate
Method: (§2) Non-Obese Diabetic Mouse (NOD) Model of Sjogren's Syndrome. Male Non Obese Diabetic (NOD) mice from the KWS BioTest NOD colony and male BALB/c mice were randomly allocated to experimental groups and allowed to acclimatise for one week prior to the beginning of the study. From six weeks of age, animals were treated according to the administration schedule in Table 5, below. Each group consisted of n=12 animals. The administration volume was 15 ml/kg from 6-12 weeks of age. The administration volume was then decreased to 10 ml/kg from 13-20 weeks of age. The vehicle was distilled water pH 3.0-3.5 for Group 7. The vehicle was 0.5% methylcellulose and 0.25% Tween® 80 for all other groups.
Measurement of lachrymal gland secretion. Lachrymal gland secretion was measured every other week from six weeks of age using a cotton thread test. Briefly, animals were anaesthetised and a fluorescein-stained cotton thread was inserted under the eye lid in the medial canthus region and held in place for two minutes. Results for each group were graphed and presented with SEM's.
Lachrymal Gland Secretion. Lachrymal gland secretion was measured by the cotton thread test. Data are expressed as millimetres per gram bodyweight. Data from this readout are indicative of inflammatory changes in the lachrymal gland, but significant changes are typically only seen from weeks 18 onwards in NOD mice. Data were analysed by two-way ANOVA for repeated measures followed by Dunnett's post-test for multiple comparisons to the vehicle-treated group and presented as mean±SEM (FIG. 14).

[3] = target: Btk (Homo sapiens, UniProt Q06187); assay: Clinical single dose study, Btk occupancy in enriched B cells (covalent probe ELISA); type: in vivo
Btk, sequence (Q06187 whole entry): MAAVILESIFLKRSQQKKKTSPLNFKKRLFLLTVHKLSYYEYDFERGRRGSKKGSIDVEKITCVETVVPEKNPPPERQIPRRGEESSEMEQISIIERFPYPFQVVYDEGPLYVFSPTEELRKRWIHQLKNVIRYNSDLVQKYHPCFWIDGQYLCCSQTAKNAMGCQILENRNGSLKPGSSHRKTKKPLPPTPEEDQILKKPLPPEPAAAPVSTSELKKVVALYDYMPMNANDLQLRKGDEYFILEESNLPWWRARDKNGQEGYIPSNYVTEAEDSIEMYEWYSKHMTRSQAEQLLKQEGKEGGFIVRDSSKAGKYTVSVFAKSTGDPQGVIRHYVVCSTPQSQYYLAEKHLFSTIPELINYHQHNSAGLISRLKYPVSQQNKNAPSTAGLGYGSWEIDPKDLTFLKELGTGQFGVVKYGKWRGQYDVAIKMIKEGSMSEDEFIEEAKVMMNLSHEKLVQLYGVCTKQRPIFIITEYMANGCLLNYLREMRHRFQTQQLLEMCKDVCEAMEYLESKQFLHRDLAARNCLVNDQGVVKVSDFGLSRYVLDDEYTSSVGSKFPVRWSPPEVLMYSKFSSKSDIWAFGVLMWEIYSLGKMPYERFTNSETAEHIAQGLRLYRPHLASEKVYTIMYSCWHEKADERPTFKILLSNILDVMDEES
Method: Btk Target Site Occupancy ELISA: An ELISA method for the detection of free uninhibited Btk in mouse, rat, dog, monkey, and human lysates was developed at Celgene Avilomics Research and a validation of this method in human B cell lysate was performed by a CLIA Certified laboratory (Cambridge Biomedical Laboratories, Boston, Mass.) The parameters that were assessed included: accuracy, linearity, dilution, precision (intra and inter-assay), stability, reference range, freeze-thaw cycles, reportable range, specificity, sensitivity, and carryover. […] Standards and samples were transferred to a streptavidin-coated 96-well ELISA plate and mixed while shaking for 1 h at room temperature. […] After wash, goat α-mouse-HRP (1:5000 dilution in PBS+0.05% Tween-20+0.5% BSA) was added and incubated for 1 h at room temperature. The ELISA was developed with addition of tetramethyl benzidine (TMB) followed by Stop Solution and read at OD 450 nm.
(§3) Clinical Study: A double blind, placebo-controlled, ascending single dose, randomized study in normal healthy human volunteers was conducted at a single clinical research unit in accordance with Declaration of Helsinki principles. Informed consent statements were obtained from all subjects prior to inclusion in the study. Subjects were admitted to the unit 1 day before dosing and discharged 96 h after dosing.
Isolation of Enriched B Lymphocyte Population from Human Healthy Volunteers: 21 mL of human whole blood was collected from each subject at each time point into BD® Vacutainer® CPT Cell Preparation Tubes containing sodium heparin. […] Isolated cells were harvested into a clean 50 mL conical tube that was pooled by subject. […] Cell suspensions were diluted in 1 mL of red blood cell lysis buffer for 3 minutes at room temperature. […] The lysates were stored frozen at ≦−70° C. until Btk target site occupancy analysis by ELISA.

[4] = system: KC; assay: Inflammatory chemokine and cytokine analysis in CIA mice, KC; type: in vivo, mouse
Excerpt: as §1, with “Following centrifugation, serum was diluted 1:4 with a mouse serum diluents kit (BioRad cat#171-305004).” left out

[5] = system: male NOD mice; assay: NOD mouse model, salivary gland secretion (pilocarpine-induced salivation assay); type: in vivo; settings: all treatment groups
Method: as §2
Measurement of salivary gland secretion. Salivary gland secretion was measured every other week from six weeks of age. […] The weight of saliva collected was then measured using digital scales. […]
Salivary Gland Secretion. Salivary gland secretion was measured using the pilocarpine-induced salivation assay. Data are expressed as milligram of saliva per gram bodyweight. Data from this readout are indicative of inflammatory changes in the salivary glands, but significant changes are typically only seen from weeks 18 onwards in NOD mice. […] Data were analysed by two-way ANOVA followed by Dunnett's post-test for multiple comparisons to the vehicle-treated group (FIG. 16).

[6] = Clinical single dose study in healthy human volunteers, pharmacokinetics; type: in vivo; settings: single oral 2 mg/kg
Method: as §3

[7] = Environmental stability; type: physicochemical

C=CC(=O)Nc1cccc(Nc2nc(Nc3ccc(OCCOC)cc3)ncc2F)c1 [Compound 1 besylate, N-(3-(5-fluoro-2-(4-(2-methoxyethoxyl)phenylamino)pyrimidin-4-ylamino)phenyl)acrylamide besylate]
TNF-a mean ([1]; 3 mg/kg): 160.2 pg/mL
TNF-a mean ([1]; 10 mg/kg): 123.0* pg/mL
TNF-a mean ([1]; 30 mg/lkg): 117.0* pg/mL
lachrymal gland secretion vs vehicle ([2]; 30 mg/kg SID, 10, 18 and 20 weeks of age): significantly higher; also recorded: statistically significant increase
lachrymal gland secretion vs vehicle ([2]; 50 mg/kg twice daily, 6, 8, 10, 18 and 20 weeks of age): significantly higher; also recorded: statistically significant increase
lachrymal gland secretion vs vehicle ([2]; 100 mg/kg SID, 8, 10, 12, 16, 18 and 20 weeks of age): significantly higher; also recorded: statistically significant increase
lachrymal gland secretion vs vehicle ([2]; ad libitum 0.16 mg/ml in drinking water, 10, 16, 18 and 20 weeks of age): significantly higher; also recorded: statistically significant increase
receptor occupancy at 2 mg/kg ([3]; 2 mg/kg, 4 hours, read-out: average cohort Btk occupancy (maximal)): > 97%
time complete or near-complete Btk occupancy was sustained ([3]; 2.0 mg/kg, all 6 subjects): 8 to 24 h
receptor occupancy at 2 mg/kg ([3]; 2.0 mg/kg, within 4 hours, read-out: Btk occupancy, 5 of 6 subjects): > 98%
receptor occupancy at 2 mg/kg ([3]; 2.0 mg/kg, within 4 hours, read-out: Btk occupancy, 6th subject): 84%
average Btk re-synthesis rate ([3]; after single oral 2.0 mg/kg): 3.0 pg Btk/ug protein/hour
free Btk protein levels recovered, % of pre-dose values ([3]; within 96 hours): ~75%
KC mean ([4]; 3 mg/kg): 62.0 pg/mL
KC mean ([4]; 10 mg/kg): 31.1* pg/mL
KC mean ([4]; 30 mg/lkg): 17.5* pg/mL
salivary gland secretion between groups [5]: No significant differences
Cmax ([6]; plasma, 6 subjects, read-out: mean maximum plasma concentration (Cmax)): 542 ng/mL
half-life ([6]; plasma, read-out: median terminal elimination half-life (converted)): 1.9 h
time to peak plasma concentrations [6]: 30 to 120 min
plasma concentrations at 48 hours post dose ([6]; all subjects): below the lower limit of quantification
plasma concentrations within 24 hours post dose ([6]; limit of detection 0.1 ng/mL): near or below the lower limit of detection
environmental instabilities (heat, acid, base) [7]: no environmental instabilities
